Structures can show the parent of a compound that is named as a salt. Where two headings read alike, the source gives them in different places.
How the values were obtained:
in vitro = assay type: cell-based; conditions: human
Experimental: (§1) AIZ-AR cells were seeded in 96-well plates at density 5x10^4 cells per well. […] Following the incubation, MTT assay was measured spectrophotometrically at 540 nm using Tecan Infinite M2000 plate luminometer.

human androgen receptor [1] = target: T1, human androgen receptor (Homo sapiens, UniProt P10275); assay: Gene reporter assay in AIZ-AR cells, agonist mode (luciferase); assay type: cell-based; conditions: for effect on luciferase activity in agonist mode: 24 h
Experimental: (§2) AIZ-AR cells were seeded in 96-well plates at density 5x10^4 cells per well. […] After the treatments, cells were lysed and luciferase activity was measured in 96-well plate format using Tecan Infinite M2000 plate luminometer.
(§3) Dose-response analyses assays were performed in two different experimental layouts. […] Where appropriate, IC50 (half maximal inhibitory concentration) values were calculated.

human androgen receptor [2] = target: T1, human androgen receptor; assay: Gene reporter assay in AIZ-AR cells, antagonist mode with DHT (100 nM); assay type: cell-based; conditions: antagonist mode, 24 h
Experimental: as §2, §3

human androgen receptor [3] = target: T1, human androgen receptor; assay: Gene reporter assay in AIZ-AR cells, antagonist mode with testosterone (10 nM); assay type: cell-based
Experimental: as §2, §3

androgen receptor [4] = target: androgen receptor; parameters: method as in Sedlak et al.; conditions: published data; ref Sedlak et al.; cited from earlier work
androgen receptor [5] = target: androgen receptor; parameters: method as in Wilkinson et al.; conditions: published data; ref Wilkinson et al.; cited from earlier work
AIZ-AR cells = assay: in vitro; assay type: cell-based; conditions: 24 h, MTT
Experimental: as §1

[6] = log c -5, 24 h, MTT, read-out: % of viability
[7] = log c -6, 24 h, MTT, read-out: % of viability
[8] = log c -7, 24 h, MTT, read-out: % of viability
[9] = log c -8, 24 h, MTT, read-out: % of viability
[10] = log c -9, 24 h, MTT, read-out: % of viability
[11] = log c -10, 24 h, MTT, read-out: % of viability

T1 sequence (P10275 whole entry): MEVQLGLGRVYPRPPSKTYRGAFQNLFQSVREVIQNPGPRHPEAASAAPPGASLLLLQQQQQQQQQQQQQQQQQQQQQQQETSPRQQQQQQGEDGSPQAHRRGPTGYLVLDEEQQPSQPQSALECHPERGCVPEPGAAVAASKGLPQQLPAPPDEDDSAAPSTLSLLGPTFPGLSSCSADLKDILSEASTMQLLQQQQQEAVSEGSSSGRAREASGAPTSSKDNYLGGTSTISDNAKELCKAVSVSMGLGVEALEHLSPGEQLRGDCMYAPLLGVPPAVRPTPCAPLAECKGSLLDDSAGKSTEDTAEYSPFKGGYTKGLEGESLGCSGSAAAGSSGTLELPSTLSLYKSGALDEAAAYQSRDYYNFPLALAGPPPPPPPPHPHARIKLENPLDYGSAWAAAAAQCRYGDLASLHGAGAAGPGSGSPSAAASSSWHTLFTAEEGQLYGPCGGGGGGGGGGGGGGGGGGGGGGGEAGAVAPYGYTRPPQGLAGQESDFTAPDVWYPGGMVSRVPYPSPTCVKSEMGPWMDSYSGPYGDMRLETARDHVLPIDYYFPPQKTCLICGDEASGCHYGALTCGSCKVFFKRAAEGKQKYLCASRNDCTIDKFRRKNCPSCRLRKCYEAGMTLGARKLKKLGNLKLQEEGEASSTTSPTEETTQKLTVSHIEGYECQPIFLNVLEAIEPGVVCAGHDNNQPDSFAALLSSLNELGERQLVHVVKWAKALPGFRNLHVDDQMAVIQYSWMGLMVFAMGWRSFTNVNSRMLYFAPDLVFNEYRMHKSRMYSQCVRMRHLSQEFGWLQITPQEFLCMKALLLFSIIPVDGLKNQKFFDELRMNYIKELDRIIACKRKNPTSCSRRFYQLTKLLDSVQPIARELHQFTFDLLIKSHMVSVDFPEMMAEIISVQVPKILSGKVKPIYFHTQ

Compound	viability at 24 h, 0.1 nM (in vitro) [%]	viability at 24 h, 1 nM (in vitro) [%]	viability at 24 h, 10 nM (in vitro) [%]	viability at 24 h, 100 nM (in vitro) [%]	viability at 24 h, 1 μM (in vitro) [%]	viability at 24 h, 10 μM (in vitro) [%]	other results
CC#C[C@]1(O)CC[C@H]2[C@@H]3CCC4=CC(=O)CCC4=C3[C@@H](c3ccc(N(C)C)cc3)C[C@@]21C [Mifepristone, mifepristone]	100	104 ± 2.8	102 ± 9.7	104 ± 18.2	94.7 ± 9.5	41.7 ± 1.1	–
C[C@H]1C[C@H]2[C@@H]3CCC4=CC(=O)C=C[C@]4(C)[C@@]3(F)[C@@H](O)C[C@]2(C)[C@@]1(O)C(=O)CO [Betamethasone, betamethasone]	100	105 ± 4	110 ± 7.3	109 ± 7.9	108 ± 14.6	101 ± 9.9	–
C[C@]12C=CC(=O)C=C1CC[C@@H]1[C@@H]2[C@@H](O)C[C@@]2(C)[C@H]1CC[C@]2(O)C(=O)CO [Prednisolone, prednisolone]	100	100.7 ± 0.8	104 ± 3.7	107 ± 5.2	104 ± 5.2	101 ± 8.3	–
CC/C(=C(\c1ccc(O)cc1)c1ccc(OCCN(C)C)cc1)c1ccccc1 [4-hydroxytamoxifen]	100	101.8 ± 1	100 ± 5.4	104 ± 4.4	106 ± 3.8	9.2 ± 7.7	Log EC50 (human androgen receptor [1]; Clone 8, 24 h): > -5.00; Log EC50 (human androgen receptor [1]; Clone 14, 24 h): > -5.00; Log IC50 (DHT 100nM) (human androgen receptor [2]; Clone 8): > -5.00; Log IC50 (DHT 100nM) (human androgen receptor [2]; Clone 14): > -5.00; Log IC50 (Testosterone 10 nM) (human androgen receptor [3]; Clone 8, 24 h): > -5.00; Log IC50 (Testosterone 10 nM) (human androgen receptor [3]; Clone 14, 24 h): > -5.00; Literature Log EC50 (androgen receptor [4]): > -5.00; Literature Log EC50 (androgen receptor [5]): > -5.00
CC(=O)[C@H]1CC[C@H]2[C@@H]3CCC4=CC(=O)CC[C@]4(C)[C@H]3CC[C@]12C [Progesterone, progesterone]	100	98.7 ± 7.3	98.7 ± 12.2	99.8 ± 14.1	98.1 ± 13.9	91 ± 9.5	–
C[C@]12CC[C@@H]3c4ccc(O)cc4CC[C@H]3[C@@H]1CC[C@@H]2O [17β-estradiole, estradiol]	100	107 ± 4.3	110 ± 3.2	110 ± 6.2	110 ± 6.2	116 ± 16.4	–
CC(=O)[C@H]1CC[C@H]2[C@@H]3CCC4=CC(=O)CC[C@]4(C)[C@H]3CC[C@]12C [17α-progesterone]	–	–	–	–	–	–	% of viability (AIZ-AR cells; log c -5): 92.0 ± 3.7%; % of viability (AIZ-AR cells; log c -6): 92.0 ± 3.7%; % of viability (AIZ-AR cells; log c -7): 95.0 ± 4.0%; % of viability (AIZ-AR cells; log c -8): 95.0 ± 4.0%; % of viability (AIZ-AR cells; log c -9): 98.2 ± 2.6%
CC/C(=C(\c1ccccc1)c1ccc(OCCN(C)C)cc1)c1ccccc1 [Tamoxifen citrate, tamoxifen citrate salt]	100	103 ± 4.3	107 ± 4.6	106 ± 3.8	88.5 ± 2.4	1.7 ± 0.8	–
C[C@]12C[C@H](O)[C@H]3[C@@H](CCC4=CC(=O)CC[C@@]43C)[C@@H]1CC[C@@H]2C(=O)CO [Corticosterone, corticosterone]	100	104	107 ± 2.5	111 ± 5.7	109 ± 6.5	105 ± 3.4	–
C[C@]12C=CC(=O)C=C1CC[C@H]1[C@@H]3C[C@@H](O)[C@](O)(C(=O)CO)[C@@]3(C)C[C@H](O)[C@@]12F [Triamcinolone, triamcinolone]	100	101 ± 4.2	100 ± 8.2	105 ± 11.4	103 ± 11	101 ± 5.4	–
C[C@]12CCC(=O)C=C1CC[C@@H]1[C@@H]2[C@@H](O)C[C@@]2(C)[C@H]1CC[C@]2(O)C(=O)CO [Cortisol, cortisol]	–	–	–	–	–	–	potency weaker as compared to androgens (human androgen receptor [1]): 2–3 orders of magnitude; effect on luciferase activity in agonist mode (human androgen receptor [1]): induced luciferase activity; Log EC50 (human androgen receptor [1]; Clone 8, 24 h): -6.35 ± 0.11; Log EC50 (human androgen receptor [1]; Clone 14, 24 h): -6.49 ± 0.04; viability at 24 h, 10 μM (in vitro; [6]): 105 ± 10.4%; viability at 24 h, 1 μM (in vitro; [7]): 107 ± 12.3%; viability at 24 h, 100 nM (in vitro; [8]): 107 ± 13.2%; viability at 24 h, 10 nM (in vitro; [9]): 106 ± 9.1%; viability at 24 h, 1 nM (in vitro; [10]): 109 ± 4.1%; viability at 24 h, 0.1 nM (in vitro; [11]): 100%; Literature Log EC50 (androgen receptor [4]): > -5.00; Literature Log EC50 (androgen receptor [5]): -8.22
C[C@]12CCC(=O)C[C@@H]1CC[C@@H]1[C@@H]2CC[C@]2(C)[C@@H](O)CC[C@@H]12 [5α-dihydrotestosterone]	–	–	–	–	–	–	viability at 24 h, 10 μM (in vitro; [6]): 104 ± 2%; viability at 24 h, 1 μM (in vitro; [7]): 108 ± 2.6%; viability at 24 h, 100 nM (in vitro; [8]): 114 ± 5.7%; viability at 24 h, 10 nM (in vitro; [9]): 109 ± 2.1%; viability at 24 h, 1 nM (in vitro; [10]): 108 ± 4.6%; viability at 24 h, 0.1 nM (in vitro; [11]): 100%
C[C@]12CC[C@H]3[C@@H](CCC4=CC(=O)CC[C@@]43C)[C@@H]1CC[C@@H]2O [Testosterone, testosterone]	–	–	–	–	–	–	viability at 24 h, 10 μM (in vitro; [6]): 105.3 ± 1%; viability at 24 h, 1 μM (in vitro; [7]): 105 ± 6.9%; viability at 24 h, 100 nM (in vitro; [8]): 103 ± 5.6%; viability at 24 h, 10 nM (in vitro; [9]): 108 ± 4.8%; viability at 24 h, 1 nM (in vitro; [10]): 108.6 ± 1%; viability at 24 h, 0.1 nM (in vitro; [11]): 100%
CC/C(=C(/CC)c1ccc(O)cc1)c1ccc(O)cc1 [Diethylstilbestrol, diethylstilbestrol]	100	101 ± 5.1	102 ± 7.6	102 ± 5.1	98 ± 4.3	99.9 ± 7	–
C#C[C@]1(O)CC[C@H]2[C@@H]3CCC4=Cc5oncc5C[C@]4(C)[C@H]3CC[C@@]21C [Danazol]	100	106 ± 1.5	108 ± 6.9	109 ± 10.6	108 ± 11.6	114 ± 12.1	–
O=C(c1ccc(OCCN2CCCCC2)cc1)c1c(-c2ccc(O)cc2)sc2cc(O)ccc12 [Raloxifene hydrochloride, raloxifene hydrochloride]	100	103 ± 8.5	99.8 ± 4.3	106 ± 6.8	95.9 ± 10.3	7.1 ± 0.2	–
C[C@H]1C[C@H]2[C@@H]3CCC4=CC(=O)C=C[C@]4(C)[C@@]3(Cl)[C@@H](O)C[C@]2(C)[C@@]1(O)C(=O)CO [Beclomethasone, beclomethasone]	–	–	–	–	–	–	% of viability (AIZ-AR cells; log c -5): 92.3 ± 2.1%; % of viability (AIZ-AR cells; log c -6): 98.4 ± 0.9%; % of viability (AIZ-AR cells; log c -7): 109.2 ± 5.7%; % of viability (AIZ-AR cells; log c -8): 106.5 ± 6.1%; % of viability (AIZ-AR cells; log c -9): 99.9 ± 3.9%
CC(=O)O[C@]1(C(C)=O)CC[C@H]2[C@@H]3C=C(Cl)C4=CC(=O)[C@@H]5C[C@@H]5[C@]4(C)[C@H]3CC[C@@]21C [Cyproterone acetate, cyproterone acetate]	100	105 ± 1.7	105 ± 2	106 ± 5.7	99.4 ± 7.8	89.5 ± 6.6	–
C[C@H]1C[C@@H]2[C@H]([C@@H](O)C[C@@]3(C)[C@H]2CC[C@]3(O)C(=O)CO)[C@@]2(C)C=CC(=O)C=C12 [Methyl-prednisolone, methylprednisolone]	100	107 ± 3.1	111 ± 9.4	105 ± 8.9	105 ± 14.3	105 ± 16	Log EC50 (human androgen receptor [1]; Clone 8, 24 h): -7.60 ± 0.43; Log EC50 (human androgen receptor [1]; Clone 14, 24 h): -7.48 ± 0.30; Literature Log EC50 (androgen receptor [5]): -8.75
CC(=O)S[C@@H]1CC2=CC(=O)CC[C@]2(C)[C@H]2CC[C@@]3(C)[C@@H](CC[C@@]34CCC(=O)O4)[C@H]12 [Spironolactone, spironolactone]	100	108 ± 1.5	112 ± 5.7	113 ± 10	98.9 ± 5.5	58.9 ± 2.5	–
C[C@]12CCC(=O)C=C1CC[C@@H]1[C@@H]2[C@@H](O)C[C@]2(C=O)[C@@H](C(=O)CO)CC[C@@H]12 [Aldosterone, aldosterone]	–	–	–	–	–	–	effect on luciferase activity in agonist mode (human androgen receptor [1]): did not significantly increased luciferase activity; Log EC50 (human androgen receptor [1]; Clone 8, 24 h): -6.03 ± 0.04; Log EC50 (human androgen receptor [1]; Clone 14, 24 h): -6.11 ± 0.02; viability at 24 h, 10 μM (in vitro; [6]): 97 ± 5.4%; viability at 24 h, 1 μM (in vitro; [7]): 98.6 ± 0.8%; viability at 24 h, 100 nM (in vitro; [8]): 99 ± 1.4%; viability at 24 h, 10 nM (in vitro; [9]): 99.4 ± 1%; viability at 24 h, 1 nM (in vitro; [10]): 110 ± 1.4%; viability at 24 h, 0.1 nM (in vitro; [11]): 100%; Literature Log EC50 (androgen receptor [4]): > -5.00; Literature Log EC50 (androgen receptor [5]): > -5.00
C[C@@H]1C[C@H]2[C@@H]3CCC4=CC(=O)C=C[C@]4(C)[C@@]3(F)[C@@H](O)C[C@]2(C)[C@@]1(O)C(=O)CO [Dexamethasone, dexamethasone]	100	99.8 ± 3.9	114 ± 2	112.7 ± 1.1	111 ± 3.4	108 ± 2.6	–

Reference: article PMC4374931 (PLoS ONE, 2015)
